Our source for the T/C values is PubChem BioAssay AID330 (DTP/NCI, 2004).

Where “and” joins values, the source holds several entries; their conditions need not be identical. Identical values can stand only once. Inconclusive results and toxic doses are left out.

This assay relates to P388 leukemia ip, CD2F1 mice, survival T/C. As to the kind of experiment: NCI In Vivo Anticancer Drug Screen. Data for tumor model P388 Leukemia (intraperitoneal) in CD2F1 (CDF1) mice. The conditions noted are these: endpoint: median survival time, higher = longer survival. In short, it runs like this:
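Mice carrying the transplanted tumor received test compound or vehicle. Survival was recorded in each group, and the value is the treated-group measurement divided by that of the vehicle-treated control group.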

[1] abbreviates: dose: 25.0 mg/kg/injection, schedule: Q04DX003 (ip), vehicle: saline with Tween-80.
The mark [2] stands for this setting: dose: 50.0 mg/kg/injection, schedule: Q04DX003 (ip), vehicle: saline with Tween-80.
Setting [3] is: dose: 100.0 mg/kg/injection, schedule: Q04DX003 (ip), vehicle: saline with Tween-80.
Setting [4] is: dose: 200.0 mg/kg/injection, schedule: Q04DX003 (ip), vehicle: saline with Tween-80.
The mark [5] stands for this setting: dose: 50.0 mg/kg/injection, schedule: Q01DX005 (ip), vehicle: saline with Tween-80.
The mark [6] stands for this setting: dose: 100.0 mg/kg/injection, schedule: Q01DX005 (ip), vehicle: saline with Tween-80.
The mark [7] stands for this setting: dose: 200.0 mg/kg/injection, schedule: Q01DX005 (ip), vehicle: saline with Tween-80.
Where [8] appears, read: dose: 60.0 mg/kg/injection, schedule: Q01DX005 (ip), vehicle: saline with Tween-80.
[9] abbreviates: dose: 120.0 mg/kg/injection, schedule: Q01DX005 (ip), vehicle: saline with Tween-80.
The mark [10] stands for this setting: dose: 240.0 mg/kg/injection, schedule: Q01DX005 (ip), vehicle: saline with Tween-80.
[11] abbreviates: dose: 15.0 mg/kg/injection, schedule: Q01DX005 (ip), vehicle: saline with Tween-80.
[12] abbreviates: dose: 30.0 mg/kg/injection, schedule: Q01DX005 (ip), vehicle: saline with Tween-80.
Setting [13] is: dose: 50.0 mg/kg/injection, schedule: Q01DX009 (ip), vehicle: saline.
The mark [14] stands for this setting: dose: 100.0 mg/kg/injection, schedule: Q01DX009 (ip), vehicle: saline.
The mark [15] stands for this setting: dose: 200.0 mg/kg/injection, schedule: Q01DX009 (ip), vehicle: saline.
The mark [16] stands for this setting: dose: 100.0 mg/kg/injection, schedule: Q01DX009 (ip), vehicle: saline with Tween-80.

On to `CCc1c(C)[nH]c2ccc(N)cc12`, for which the T/C runs as follows: under setting [1], 99 % of control; under setting [2], 93 % of control; under setting [3], 93 % of control; under setting [4], 110 % of control.

`CCCCN(CCCC)/N=N\N(CCCC)CCCC`: the T/C reads like this: (dose: 12.5 mg/kg/injection, schedule: Q01DX005 (ip), vehicle: saline with Tween-80) 104 % of control and 93 % of control; (dose: 25.0 mg/kg/injection, schedule: Q01DX005 (ip), vehicle: saline with Tween-80) 104 % of control and 90 % of control; under setting [5], 107 % of control and 93 % of control and 94 % of control; under setting [6], 98 % of control and 100 % of control and 97 % of control; under setting [7], 105 % of control.

On to `Cc1ncc(CN2CSC(CCO)C2C)c(N)n1` (stereo unspecified), for which the T/C was 100 % of control (dose: 60.0 mg/kg/injection, schedule: Q01DX005 (ip), vehicle: Klucel (hydroxypropylcellulose) (HPC)); 106 % of control (dose: 120.0 mg/kg/injection, schedule: Q01DX005 (ip), vehicle: Klucel (hydroxypropylcellulose) (HPC)); 105 % of control (dose: 240.0 mg/kg/injection, schedule: Q01DX005 (ip), vehicle: Klucel (hydroxypropylcellulose) (HPC)).

For `O=C(/C=C/c1ccccc1)NC1C=Nc2ccc(Cl)cc2NC1=O` (stereo unspecified), the T/C by setting is: under setting [8], 97 % of control; under setting [9], 95 % of control; under setting [10], 97 % of control.

For `C[Se]C([Se]C)=C([Se]C)[Se]C`, the T/C reads like this: under setting [11], 107 % of control; under setting [12], 108 % of control; under setting [8], 100 % of control and 91 % of control.

For the compound `Cc1cc(NS(=O)(=O)c2ccc(NCc3c4ccccc4nc4cc(Cl)ccc34)cc2)no1`, the T/C under setting [8] is 94 % of control, the T/C under setting [9] is 94 % of control and the T/C under setting [10] was 94 % of control.

For the compound `O=[N+]([O-])O.O=[N+]([O-])O.[NH-]C1CCCC1[NH-].[Pt+2]` (stereo unspecified), the T/C runs as follows: (dose: 6.25 mg/kg/injection, schedule: Q04DX002 (ip), vehicle: saline) 180 % of control; (dose: 12.5 mg/kg/injection, schedule: Q04DX002 (ip), vehicle: saline) 180 % of control; (dose: 12.5 mg/kg/injection, schedule: Q04DX002 (ip), vehicle: suspension in saline) 184 % of control; (dose: 25.0 mg/kg/injection, schedule: Q04DX002 (ip), vehicle: saline) 197 % of control; (dose: 25.0 mg/kg/injection, schedule: Q04DX002 (ip), vehicle: suspension in saline) 202 % of control.

Turning to `C=CCN(CC=C)C(CC(=O)C(C)(C)C)=NCC`, the T/C is 104 % of control (dose: 12.5 mg/kg/injection, schedule: Q01DX009 (ip), vehicle: saline); 106 % of control (dose: 25.0 mg/kg/injection, schedule: Q01DX009 (ip), vehicle: saline); 100 % of control and 101 % of control under setting [13].

Take `O=c1[nH]nnc2ccccc12`: the T/C is 105 % of control (dose: 50.0 mg/kg/injection, schedule: Q01DX009 (ip), vehicle: Klucel (hydroxypropylcellulose) (HPC)) and 114 % of control (dose: 100.0 mg/kg/injection, schedule: Q01DX009 (ip), vehicle: Klucel (hydroxypropylcellulose) (HPC)).

With `C/C=C/COc1ccccc1C=O`, the T/C runs as follows: under setting [13], 99 % of control; under setting [14], 106 % of control; under setting [15], 100 % of control.

`CC(Cc1ccc2c(c1)OCO2)NN` (stereo unspecified): the T/C (dose: 3.12 mg/kg/injection, schedule: Q01DX005 (ip), vehicle: saline) is 102 % of control; the T/C (dose: 6.25 mg/kg/injection, schedule: Q01DX005 (ip), vehicle: saline) is 96 % of control; the T/C (dose: 12.5 mg/kg/injection, schedule: Q01DX005 (ip), vehicle: saline) is 98 % of control.

`O=S(=O)(O)CCCS(=O)(=O)O`: the T/C was 98 % of control under setting [13], 98 % of control under setting [14] and 101 % of control under setting [15].

Regarding `CCOP(=O)(O)C1CCCC(C)[N-]1.CCOP(=O)(O)C1CCCC(C)[N-]1.[Ni+2]` (stereo unspecified), the T/C reads like this: (dose: 12.5 mg/kg/injection, schedule: Q04DX003 (ip), vehicle: Klucel (hydroxypropylcellulose) (HPC)) 99 % of control; (dose: 25.0 mg/kg/injection, schedule: Q04DX003 (ip), vehicle: Klucel (hydroxypropylcellulose) (HPC)) 107 % of control; (dose: 50.0 mg/kg/injection, schedule: Q04DX003 (ip), vehicle: Klucel (hydroxypropylcellulose) (HPC)) 107 % of control.

For `O=C(Nc1cc2cc([N+](=O)[O-])ccc2oc1=O)c1cccs1`, the T/C under setting [11] was 99 % of control, the T/C under setting [12] is 90 % of control and the T/C under setting [8] is 91 % of control.

In the case of `CC1OCN2C(C)CCCC12` (stereo unspecified), the T/C reads like this: (dose: 50.0 mg/kg/injection, schedule: Q01DX005 (ip), vehicle: saline) 108 % of control; (dose: 100.0 mg/kg/injection, schedule: Q01DX005 (ip), vehicle: saline) 106 % of control.

As for `COC1(OC)/C(=N/NS(=O)(=O)c2ccc(C)cc2)C2CC1C1CC21` (stereo unspecified), the T/C is 98 % of control (dose: 25.0 mg/kg/injection, schedule: Q01DX009 (ip), vehicle: saline with Tween-80); 96 % of control (dose: 50.0 mg/kg/injection, schedule: Q01DX009 (ip), vehicle: saline with Tween-80); 96 % of control under setting [16].

As for `O=Cc1c2cnc(c1O)CSCc1ccc(cc1)CSC2`, the T/C by setting is: under setting [5], 104 % of control; under setting [6], 110 % of control; under setting [7], 113 % of control.

In the case of `COc1ccccc1C1(O)c2ccccc2C(=O)c2ccccc21`, the T/C by setting is: (dose: 50.0 mg/kg/injection, schedule: Q01DX005 (ip), vehicle: Klucel (hydroxypropylcellulose) (HPC)) 101 % of control; (dose: 100.0 mg/kg/injection, schedule: Q01DX005 (ip), vehicle: Klucel (hydroxypropylcellulose) (HPC)) 99 % of control; (dose: 200.0 mg/kg/injection, schedule: Q01DX005 (ip), vehicle: Klucel (hydroxypropylcellulose) (HPC)) 103 % of control.

In the case of `COc1ccc(OC)c(NC(=O)C2=C(C)NC(C)=C(C(=O)Nc3cc(OC)ccc3OC)C2c2cccc([N+](=O)[O-])c2)c1`, the T/C was 101 % of control (dose: 7.5 mg/kg/injection, schedule: Q01DX005 (ip), vehicle: Klucel (hydroxypropylcellulose) (HPC)); 94 % of control (dose: 15.0 mg/kg/injection, schedule: Q01DX005 (ip), vehicle: Klucel (hydroxypropylcellulose) (HPC)); 92 % of control (dose: 30.0 mg/kg/injection, schedule: Q01DX005 (ip), vehicle: Klucel (hydroxypropylcellulose) (HPC)).

Consider `COc1cc2c(OC)cc1CCCC(=O)CCCc1cc(OC)c(cc1OC)CCCC(=O)CCC2`, for which the T/C by setting is: under setting [5], 100 % of control; under setting [6], 98 % of control; under setting [7], 92 % of control.

Consider `Cc1ccc2c(c1)-c1nc(N)ncc1C(O)O2` (stereo unspecified), for which the T/C (dose: 100.0 mg/kg/injection, schedule: Q04DX003 (ip), vehicle: saline) was 110 % of control; the T/C (dose: 200.0 mg/kg/injection, schedule: Q04DX003 (ip), vehicle: saline) was 96 % of control; the T/C (dose: 400.0 mg/kg/injection, schedule: Q04DX003 (ip), vehicle: saline) is 100 % of control.

As for `Cn1cnc2cc(N3CCCCC3)c(N)cc2c1=O`, the T/C runs as follows: (dose: 100.0 mg/kg/injection, schedule: Q04DX003 (ip), vehicle: Klucel (hydroxypropylcellulose) (HPC)) 107 % of control; (dose: 200.0 mg/kg/injection, schedule: Q04DX003 (ip), vehicle: Klucel (hydroxypropylcellulose) (HPC)) 99 % of control; (dose: 400.0 mg/kg/injection, schedule: Q04DX003 (ip), vehicle: Klucel (hydroxypropylcellulose) (HPC)) 102 % of control.

`Cc1nc(N)c2nc(SCc3ccc(Cl)cc3)c(N)nc2n1`: the T/C is, setting by setting: under setting [1], 100 % of control; under setting [2], 90 % of control; under setting [3], 92 % of control.

With `c1ccc2n[nH]nc2c1`, the T/C reads like this: under setting [13], 100 % of control; (dose: 100.0 mg/kg/injection, schedule: Q01DX001 (ip), vehicle: saline with Tween-80) 112 % of control; under setting [16], 104 % of control; under setting [14], 100 % of control; under setting [3], 95 % of control; (dose: 200.0 mg/kg/injection, schedule: Q01DX001 (ip), vehicle: saline with Tween-80) 105 % of control. Moreover, the T/C was 109 % of control (dose: 200.0 mg/kg/injection, schedule: Q01DX009 (ip), vehicle: saline with Tween-80); 104 % of control under setting [15]; 109 % of control under setting [4].
